From patent US9562036B2, “Fluoromethyl-substituted pyrrole carboxamides as CaV2.2 calcium channel blockers” (GRÜNENTHAL GMBH, priority 2013, dated 2017)

Target: T1, Human CaV2.2 channels (Homo sapiens, UniProt Q00975)
T1 construct: expressed in transfected cells; also stably expressing Kir2.3)
Assay: Fluorescent assay for CaV2.2 channels using potassium depolarization to induce channel opening (FLIPR, Fluo 4)
Type: cell-based
Settings: 3 μM test compound; 30 mM KCl alternative assay buffer (inactivated channel state); HEK293 cells; read-out: %-Inhib (CaV2.2) @3 μM @30 mM KCl
Excerpt: In the process, the Ca^2+ influx is quantified in the FLIPR assay with the aid of a Ca^2+-sensitive dye (type Fluo-4, Molecular Probes Europe BV, Leiden, the Netherlands) in a fluorescent imaging plate reader (FLIPR 3, Molecular Devices, Sunnyvale, USA), as described hereinafter.
2. Assay Descriptions and Biological Data: 2.1 Fluorescent Assay for CaV2.2 Channels Using Potassium Depolarization to Induce Channel Opening
Human CaV2.2 channels were stably expressed in HEK293 cells together with alpha2-delta and beta subunits of voltage gated calcium channels. In addition, an inwardly rectifying potassium channel (Kir2.3) was stably expressed in these cells to augment control of the cell membrane potential by the concentration of extracellular potassium ions. Raise of the extracellular potassium concentration leads to depolarization of the membrane potential and thus regulates the voltage dependent state of CaV2.2 channels. For preparation, cells were seeded in black poly-D-lysine coated 96-well plates (Becton Dickinson, Biocoat 4640) in 100 μL medium [500 mL DMEM/F-12 plus Glutamax (Invitrogen 31331-093) plus 5.5 mL MEM NEAA 100× (Invitrogen 11140-035) plus 50 mL FBS decomplemented (Invitrogen 10270-106) plus 200 μg/mL Geneticin (Invitrogen 10131-027) plus 50 μg/mL Hygromycin B (Invitrogen 10687-010) plus 2 μg/mL Blasticidin (anti-bl5b Invivo-Gen) plus 0.2 μg/mL Puromycin (A 11138-03)] at a cell density of 30.000 cells per well. Plates were incubated at 37° C. (5% CO2) for 20 to 23 h. On the day of experiment medium was discarded and cells were loaded with Fluo 4 by addition of 100 μL of basic assay buffer (10 mM HEPES, 1 mM KCl, 149 mM NaCl, 0.8 mM CaC2, 1.7 mM MgCl2, 10 mM Glucose, 0.1% BSA. pH 7.4) containing 2 μM Fluo 4 (Molecular Probes; F-14201), 0.01% pluronic acid (Molecular Probes; P-6866) and 2.5 mM probenecid (Molecular Probes; P36400). Cells were incubated in the dark at 25° C. for 60 min. Then dye containing buffer was discarded and 100 μL basic (1 mM KCl) or alternative (30 mM KCl) assay buffer was added. The alternative assay buffer contained altered concentrations of KCl (30 mM) and NaCl (120 mM) and was used in order to promote the inactivated channel state. After that 25 μL of basic or alternative assay buffer with or without test compound were added and cells were incubated again in the dark at 25° C. for 15 min. Fluorescence intensity was measured on a FLIPR 3 instrument (Molecular Devices Corp., Sunnyvale, Calif.) with excitation at 480 nm and emission at 535 nm. After continuously reading fluorescence for 30 sec, 50 μL of basic assay buffer containing 210 mM KCl (NaCl omitted) were added for depolarization. Peak fluorescent signal intensity was determined and the amplitude of the peak signal, normalized to base line, was used to measure channel inhibition by test compounds.

T1 sequence (Q00975 whole entry): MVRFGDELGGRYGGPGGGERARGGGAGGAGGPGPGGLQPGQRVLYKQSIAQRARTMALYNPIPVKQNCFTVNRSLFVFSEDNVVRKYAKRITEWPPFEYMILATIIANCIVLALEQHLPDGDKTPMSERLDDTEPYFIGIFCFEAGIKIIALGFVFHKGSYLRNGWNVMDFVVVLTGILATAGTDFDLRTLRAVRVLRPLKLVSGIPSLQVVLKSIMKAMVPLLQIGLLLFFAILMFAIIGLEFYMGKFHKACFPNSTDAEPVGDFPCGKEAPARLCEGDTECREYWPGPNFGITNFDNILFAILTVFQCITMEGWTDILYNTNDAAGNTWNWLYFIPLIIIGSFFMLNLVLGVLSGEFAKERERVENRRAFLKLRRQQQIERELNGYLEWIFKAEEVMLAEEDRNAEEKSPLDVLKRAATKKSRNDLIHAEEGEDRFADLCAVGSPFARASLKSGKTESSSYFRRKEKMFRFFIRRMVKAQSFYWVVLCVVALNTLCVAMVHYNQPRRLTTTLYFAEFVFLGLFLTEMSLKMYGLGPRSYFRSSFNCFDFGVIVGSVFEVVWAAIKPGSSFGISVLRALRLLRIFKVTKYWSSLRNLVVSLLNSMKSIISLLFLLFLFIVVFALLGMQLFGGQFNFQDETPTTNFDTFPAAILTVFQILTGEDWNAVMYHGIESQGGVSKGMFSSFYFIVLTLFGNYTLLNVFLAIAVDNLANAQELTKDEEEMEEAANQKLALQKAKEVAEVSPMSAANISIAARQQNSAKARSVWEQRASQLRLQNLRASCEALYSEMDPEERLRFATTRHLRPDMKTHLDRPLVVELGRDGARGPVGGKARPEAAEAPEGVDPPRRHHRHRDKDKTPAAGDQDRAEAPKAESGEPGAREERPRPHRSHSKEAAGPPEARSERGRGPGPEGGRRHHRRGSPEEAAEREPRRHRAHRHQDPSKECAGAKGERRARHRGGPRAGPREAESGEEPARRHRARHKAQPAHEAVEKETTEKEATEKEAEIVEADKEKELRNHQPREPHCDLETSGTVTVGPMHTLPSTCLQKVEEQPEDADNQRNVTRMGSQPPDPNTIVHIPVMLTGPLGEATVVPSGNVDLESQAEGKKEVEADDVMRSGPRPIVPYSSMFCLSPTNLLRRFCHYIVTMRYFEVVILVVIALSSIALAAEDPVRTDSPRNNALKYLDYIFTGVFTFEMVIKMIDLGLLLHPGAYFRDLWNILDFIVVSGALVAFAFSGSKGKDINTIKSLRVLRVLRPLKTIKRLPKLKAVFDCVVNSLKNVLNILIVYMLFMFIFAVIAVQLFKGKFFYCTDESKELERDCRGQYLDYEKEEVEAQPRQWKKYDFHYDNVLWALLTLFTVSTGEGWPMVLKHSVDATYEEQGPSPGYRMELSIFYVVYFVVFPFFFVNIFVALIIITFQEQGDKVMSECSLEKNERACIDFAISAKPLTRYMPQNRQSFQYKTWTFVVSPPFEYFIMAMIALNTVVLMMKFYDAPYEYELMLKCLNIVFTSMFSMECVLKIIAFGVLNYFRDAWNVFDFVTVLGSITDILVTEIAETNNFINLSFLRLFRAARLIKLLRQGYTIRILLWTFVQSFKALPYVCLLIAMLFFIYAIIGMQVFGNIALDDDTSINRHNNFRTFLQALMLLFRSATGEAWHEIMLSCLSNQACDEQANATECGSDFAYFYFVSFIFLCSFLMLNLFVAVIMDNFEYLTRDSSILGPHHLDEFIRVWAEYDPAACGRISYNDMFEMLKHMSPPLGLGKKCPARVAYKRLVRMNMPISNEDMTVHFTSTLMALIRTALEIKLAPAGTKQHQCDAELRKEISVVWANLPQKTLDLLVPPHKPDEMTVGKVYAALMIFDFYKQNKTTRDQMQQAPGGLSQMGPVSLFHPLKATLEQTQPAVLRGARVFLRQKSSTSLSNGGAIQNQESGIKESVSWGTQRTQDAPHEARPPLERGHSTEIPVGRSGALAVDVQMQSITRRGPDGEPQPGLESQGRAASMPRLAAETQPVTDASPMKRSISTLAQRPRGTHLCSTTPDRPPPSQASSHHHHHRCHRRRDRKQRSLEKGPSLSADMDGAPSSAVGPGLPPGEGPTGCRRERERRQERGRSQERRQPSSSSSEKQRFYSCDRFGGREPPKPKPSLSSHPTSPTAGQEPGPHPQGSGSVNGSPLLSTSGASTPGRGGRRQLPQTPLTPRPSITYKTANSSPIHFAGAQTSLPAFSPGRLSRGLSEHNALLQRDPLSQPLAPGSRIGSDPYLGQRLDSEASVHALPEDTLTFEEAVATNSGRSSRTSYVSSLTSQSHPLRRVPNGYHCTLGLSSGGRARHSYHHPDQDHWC

Structure (SMILES)	inhibition at 3 µM [%]
Cc1noc(C)c1-c1c(C)c(C(F)(F)F)n(Cc2ccccc2)c1C(=O)N(C)CC(C)(C)C [Example 16, 1-Benzyl-3-(3,5-dimethyl-isoxazol-4-yl)-N-(2,2-dimethyl-propyl)-N,4-dimethyl-5-(trifluoromethyl)-1H-pyrrole-2-carboxylic acid amide]	75 to 95
COc1cc(C)c(-c2c(C)c(C(F)(F)F)n(Cc3ccccc3)c2C(=O)N(C)CC(C)(C)C)cn1 [Example 21, 1-Benzyl-N-(2,2-dimethyl-propyl)-3-(6-methoxy-4-methyl-pyridin-3-yl)-N,4-dimethyl-5-(trifluoromethyl)-1H-pyrrole-2-carboxylic acid amide]	75 to 95
Cc1c(-c2cn[nH]c2)c(C(=O)N(C)CC(C)(C)C)n(Cc2ccccc2)c1C(F)(F)F [Example 09, 1-Benzyl-N,4-dimethyl-N-neopentyl-3-(1H-pyrazol-4-yl)-5-(trifluoromethyl)-1H-pyrrole-2-carboxamide]	75 to 95
Cc1c(-c2ncc(F)cn2)c(C(=O)N(C)CC(C)(C)C)n(Cc2ccccc2)c1C(F)(F)F [Example 33, 1-Benzyl-3-(5-fluoropyrimidin-2-yl)-N,4-dimethyl-N-neopentyl-5-(trifluoromethyl)-1H-pyrrole-2-carboxamide]	> 95
Cc1c(-c2ncc(C(F)(F)F)cc2F)c(C(=O)N(C)CC(C)(C)C)n(Cc2ccccc2)c1C(F)(F)F [Example 17, 1-Benzyl-N-(2,2-dimethyl-propyl)-3-[3-fluoro-5-(trifluoromethyl)-pyridin-2-yl]-N,4-dimethyl-5-(trifluoromethyl)-1H-pyrrole-2-carboxylic acid amide]	75 to 95
